# Laboratory results taken from US9278143B2, “Imaging agents, process for the preparation thereof and pharmaceutical compositions containing same” (CENTRE NATIONAL DE LA RECHERCHE SCIENTIFIQUE (CNRS), priority 2011, dated 2016).
# Key:
# [1] = system: A549, H460, HCT116, U87MG tumors; experiment: Tumor fixation kinetics and ex vivo biodistribution, results stated across the tumor models; assay type: in vivo, mouse
# Experimental: (§1) In the right rear paw of Swiss nude mice (N=12), 1 to 2×10^6 tumor cells are inoculated subcutaneously, forming a group of 3 mice for each tumor cell line (A549 human lung adenocarcinoma model; H460 human lung carcinoma model; HCT116 human colorectal carcinoma model; U87MG human glioblastoma model).
# (§2) When the tumors reach a volume of between 0.5 and 1 cm, the compound of Example 3 (200 μl) solubilized at 10 nmol/ml in phosphate buffer solution (PBS) is injected intravenously.
# (§3) Under gas anesthesia, 5 acquisitions are carried out at various times of the experiment (2, 4, 6, 8 and 24 hours) using a Caliper IVIS Lumina II apparatus (ex=680 nm; em=720 nm). In parallel, blood samples are taken.
# (§4) After the animals are euthanized by cervical dislocation, the organs (kidney, liver, spleen, lung, tumor, blood, muscle, heart, intestine) are taken and ex vivo acquisition is carried out (Lumina II: ex=680 nm; em=720 nm).
# [2] = Plasma pharmacokinetics after intravenous injection; assay type: in vivo, mouse; design: distribution volume: unit not given here; details: female Swiss nude mice, 2 nmol/animal
# Experimental: In female Swiss nude mice (N=18), the compound of Example 3 solubilized to 10 nmol/ml in 0.9% NaCl solution is injected intravenously (200 μl) into the caudal vein. Blood is collected at various times (5 and 30 minutes then 2, 4, 8 and 24 hours; 3 mice/sample time) and, after centrifugation, the supernatant plasma is transferred to heparinized tubes. The sample is then diluted in 50 μl of a 20 mM ammonium formate/acetonitrile/formic acid 50/50/0.1 buffer mixture to be analyzed by UPLC-MS/MS, ESI+.
# [3] = system: U87MG (human glioblastoma) tumor cells; experiment: Interaction with tumor development, bioluminescence; assay type: in vivo
# Experimental: In the right rear paw of Swiss nude mice (N=12), 3×10^6 U87MG (human glioblastoma) tumor cells are inoculated subcutaneously. When the tumor reaches a volume of 0.5 cm, luciferin (2 mg/mouse) is injected intraperitoneally in order to carry out bioluminescence acquisition and quantification at D0.
# The animals are divided into 3 groups of 4 to form a control group with no injection; a group receiving a single intravenous injection of the compound of Example 3 (2 nmol in 200 μl); and a group receiving a weekly intravenous injection for 4 weeks of the compound of Example 3 (2 nmol in 200 μl). Lastly, bioluminescence acquisition and quantification are carried out 3 times per week after the intraperitoneal injection of luciferin.
# [4] = system: HCT116 human colorectal carcinoma model; experiment: Targeting of heterotopically-transplanted tumors, fluorescence imaging; assay type: in vivo, mouse; details: HCT116 xenograft in Swiss nude mice, 2 nmol i.v., t24h
# Experimental: as §1, §2, §3, §4
# [5] = system: A549 human lung adenocarcinoma model; experiment: as above; assay type: in vivo, mouse; details: A549 xenograft in Swiss nude mice, 2 nmol i.v., t24h
# Experimental: as §1, §2, §3, §4
# [6] = system: H460 human lung carcinoma model; experiment: as above; assay type: in vivo, mouse; details: H460 xenograft in Swiss nude mice, 2 nmol i.v., t24h
# Experimental: as §1, §2, §3, §4
# [7] = system: U87MG human glioblastoma model; experiment: as above; assay type: in vivo, mouse; details: U87MG xenograft in Swiss nude mice, 2 nmol i.v., t24h
# Experimental: as §1, §2, §3, §4
# [8] = system: K-rasLA1 murine model spontaneously developing bronchioloalveolar carcinoma; experiment: Targeting of spontaneous tumors, ex vivo lung fluorescence; assay type: in vivo, mouse; details: K-rasLA1 mice, 200 μl at 10 nmol/ml i.v.
# Experimental: On the K-rasLA1 murine model spontaneously developing bronchioloalveolar carcinoma, tumor development is controlled by X-ray scanner synchronized on respiration before injection of the product to be tested. The compound of Example 3 (200 μl) solubilized at 10 nmol/ml in phosphate buffer solution (PBS) is then injected intravenously.
# After the animals are euthanized, the lungs are taken to be fixed by tracheal injection of neutral formalin. Acquisition of fluorescence ex vivo is carried out using a Caliper IVIS Lumina II apparatus (ex=680 nm; em=720 nm). A photograph of the excised lung is also taken.
smiles,measurement,setting,value
"CC[N+]1=C(/C=C/C=C/C=C2/N(CCCCCC(=O)NCc3ccc4c(c3)Cc3cc(OCCCNc5cc(C)ccn5)ccc3CC4CC(=O)O)c3ccc4c(S(=O)(=O)O)cc(S(=O)(=O)O)cc4c3C2(C)C)C(C)(C)c2c1ccc1c(S(=O)(=O)O)cc(S(=O)(=O)O)cc21 (centres unmarked) [Example 3, Cy™ 5.5 Conjugate of the Compound of Preparation 1]",biodistribution in the principal organs,"[1]; ex vivo, 24 hours after injection",high specificity of the probe for the tumor
same,signal of tumor volume relative to muscle tissue,"[1]; ex vivo, 24 hours after injection, on average",12 times
same,tumor/kidney ratio,"[1]; ex vivo, t24h",2
same,visibility of targeted tumors by fluorescence imaging,"[1]; whatever cancer line, 2 nmol i.v., 24 hours post-injection",clearly visible
same,distribution volume,[2],1
same,half-life,"[2]; mouse, plasma",15 h
same,clearance,"[2]; mouse, plasma, read-out: plasma clearance rate",0.8 mL/min/kg
same,tumor growth by bioluminescence,"[3]; U87MG in Swiss nude mice, control, single i.v. injection, or weekly i.v. injection for 4 weeks, 2 nmol",identical for the three groups
same,anti- or pro-angiogenic effect,"[3]; single or multiple injections, 2 nmol/mouse",No anti- or pro-angiogenic effect is observed
same,tumor/healthy tissue ratio,[4],2
same,tumor/healthy tissue ratio,[5],2.3
same,tumor/healthy tissue ratio,[6],1.66
same,tumor/healthy tissue ratio,[7],3.5
same,targeting of neoplastic lesions formed in situ,[8],strong potential of targeting
